Experimental data from paper PMC12930396, “Positive modulators of N-methyl-D-aspartate receptor: structure–activity relationship study on steroidal C-17 and C-20 oxime ethers” (RSC Advances, 2026).

Key:
in vitro = conditions: pH 7.4
Method: Permeability was quantified using permeability coefficients (Pe) and mass retention, the latter representing the proportion of compound retained in the membrane.
Permeation experiments were conducted in polystyrene 96-well filter plates with PVDF membrane pre-coated with structured layers of phospholipids (Corning Gentest™) according to the manufacturer's instructions. Briefly, the plate was warmed to room temperature, and meanwhile, the solutions of the compounds were diluted from 10 mM DMSO stocks to TRIS–HCl buffer pH 7.4 to reach a 100 µM final concentration. The DMSO concentration in the samples was 1%. Then, 300 µL of these solutions were transferred into the donor (receiver) plate wells, and 200 µL of the (TRIS) buffer was added to the acceptor (filter) plate wells. The filter plate and receiver plate were assembled and incubated for 5 h on an orbital shaker (300 rpm). After this, the concentration of the tested substances in both the donor and acceptor compartments was determined with use of LC/MS. Liquid chromatography was performed using an ExionLC AD pump and autosampler from Sciex (Framingham, MA, USA). […] The mobile phase flow rate was 300 µL min^−1. The column Synergi Fusion-RP from Phenomenex (Torrance, CA, USA) was used and was kept at 40 °C during the analysis.

[1] = Thermodynamic solubility in PBS pH 7.4; format: physicochemical; conditions: PBS pH 7.4, 20 °C, 24 h
Method: The reference samples were prepared as follows: a weight corresponding to 2.5 µmol was dissolved in 250 µL of DMSO, resulting in a concentration of 10 mM stock solution. Each calibration level standard was prepared by diluting the stock solution in a mixture of PBS and acetonitrile (50 : 50 v/v). The samples for testing were prepared as follows: the volume of 1000 µL of PBS was added to the testing tube containing a weight of sample corresponding to 0.4 mM. The mixture was shaken at 1000 rpm at 20 °C for 24 h. The mixture was then filtered using a syringe polypropylene 0.45 µm filter. Samples and calibration standards are prepared using an automated system of a robotic arm (PAL-RTC, Switzerland). Then, the sample was analysed on chromatographic system (Vanquish UHPLC, Thermo Fisher Scientific, Germany) connected to the diode array detector and consequently to the charged aerosol detector (both Vanquish, Thermo Fisher Scientific, Germany), Thermo Scientific Accucore C8 (100 × 3 mm; 2.6 µm) column, using gradient elution with acetonitrile/methanol/5 mM formate buffer (pH = 3.00); flow: 1.0 cm^3 min^−1; column temperature: 40 °C; CAD temperature: 30 °C; sample volume: 5 mm^3.

[2] = Stability in primary rat hepatocytes
Method: Primary rat hepatocytes were isolated from 12-weeks-old male Wistar rats (n = 3) by two-step collagenase liver perfusion. Tribromoethanol was used as an anesthetic agent at a dose of 250 mg kg^−1. […] Flow rate was maintained at 7 mL min^−1, and all solutions were kept at 37 °C. After in situ perfusion, the liver was excised, the liver capsule was opened, and cells were suspended in William's Medium E and filtered through a 70 µm membrane. Dead cells were removed by Percoll centrifugation (Percoll density: 1.06 g mL^−1, 50×g, 10 min, 20 °C) and additional centrifugation in William's Medium E (50×g, 5 min). Cells were subsequently diluted in William's Medium E, and their viability and cell suspension density were determined by Trypan Blue exclusion using a hemocytometer. […] Aliquots (50 µL) of the hepatocyte suspension were added to each test well of a 96-well plate, immediately followed by the addition of a 50 µL aliquot of the test compound or control solutions (final hepatocyte density – 0.5 × 10^6 mL^−1). […] At appropriate time-points, 40 µL aliquots were removed from the wells and placed in 1.1 mL microtubes containing 200 µL of methanol and used for LC-MS/MS analysis.
Elimination constant (kel), half-life (t1/2), and intrinsic clearance (CLint) were determined in plots of ln (percent remaining of parent compound) versus time, using linear regression analysis: k = −slope [drawing 6] [drawing 7]

SMILES: CCON=C(C)C1CCC2C3CC=C4CC(OC(=O)CCCC(=O)O)CCC4(C)C3CCC12C (stereo not drawn) [Compound 12, 20-Oxo-pregn-5-en-3β-yl hemiglutarate O-ethyloxime]
- PAMPA permeability Retention (mass retention) (in vitro; 5 h, 100 µM): 97%
- Papp at 5 h, 100 µM (in vitro; PAMPA): 3.89 ×10⁻⁶ cm/s
- Solubility PBS, pH 7.4 (thermodynamic) [1]: 361 ± 41 µM
- solubility thermodynamic at 24 h ([1]; PBS, 20 °C, pH 7.4, aqueous buffer, thermodynamic from solid, read-out: Solubility PBS, pH 7.4 (thermodynamic)): > 350 µM
- Stability in primary rat hepatocytes Clint ([2]; 3 µM, 0.5 × 10^6 cells mL^−1): 19.1 µL/min/mg
- half-life at 3 µM ([2]; male, Wistar, rat, hepatocytes): 1.21 h
- Metabolic stability in rat hepatocytes ([2]; rat, hepatocytes): moderate metabolic stability
